According to article PMC5864050 (PLoS ONE, 2018):
Where a name gives a salt, the structure may show the parent alone. Read-outs that look alike come from different tables or passages of the source.

Columns and labels:
MERS-CoV [1] = type: cell-based, MERS-CoV Jordan strain (Hu/Jordan-N3/2012)
MERS-CoV [2] = type: cell-based, MERS-CoV Jordan strain (Hu/Jordan-N3/2012); remark: listed apart in the source
MERS-CoV [3] = type: cell-based, MERS-CoV Jordan strain (Hu/Jordan-N3/2012); remark: listed apart in the source
in vitro = conditions: human
SARS-CoV = conditions: cited from earlier work
MERS-CoV [4] = assay: microbe, parasite or virus in culture; type: cell-based, MERS-CoV Jordan strain (Hu/Jordan-N3/2012); conditions: for EC50: Middle East respiratory syndrome-related coronavirus
MERS-CoV and SARS-CoV = conditions: cited from earlier work
MERS-CoV [5] = conditions: cited from earlier work
Huh 7 cells = conditions: cited from earlier work
MERS-CoV [6] = conditions: read-out: EC50, MERS-CoV infection; cited from earlier work
Vero E6 cells = conditions: cited from earlier work

Row | SMILES | virus yield reduction (TCID50) (MERS-CoV [1]) | virus yield reduction (TCID50) (MERS-CoV [2]) | activity against MERS-CoV infection by virus yield reduction (in words) (MERS-CoV [3]) | CC50 (in vitro) | EC50 (SARS-CoV) | EC50, antiviral activity against MERS-CoV (MERS-CoV [4]) | EC50 (MERS-CoV [4]) | toxicity (in words) (MERS-CoV and SARS-CoV) | EC50 (MERS-CoV [5]) | CC50 (Huh 7 cells) | EC50 (MERS-CoV [6]) | cytotoxicity (in words) (immature MDDCs) | cytotoxicity (in words) (Vero E6 cells) | virus yield reduction (TCID50), drop (MERS-CoV [3]) | selectivity index (SI = CC50÷EC50) (MERS-CoV [4]) | EC50 (MERS-CoV [4]; read-out: EC50, antiviral activity against MERS-CoV)
1 | CN(C)CCOc1ccc(/C(=C(/CCCl)c2ccccc2)c2ccccc2)cc1 [TOMF, Toremifene citrate] | 1–1.5 log10 | 1–1.5 log10 | not active | 22.5 µM | 12 µM | too low to determine an EC50 | 38 µM |  |  |  |  |  |  |  |  | 
2 | CCN(CC)CCCC(C)Nc1ccnc2cc(Cl)ccc12 (stereo not drawn) [CQ, chloroquine diphosphate salt] | no virus yield reduction | no virus yield reduction | not active |  |  |  |  | low toxicity | 6.3 µM |  |  |  |  |  |  | 
3 | CN(C)CCCN1c2ccccc2Sc2ccc(Cl)cc21 [CPZ, Chlorpromazine hydrochloride] | ~2 log10 | ~2 log10 | active | 25.6 µM |  |  |  |  | 9.5 µM | 21.3 µM | 4.9 µM | high cytotoxicity | low cytotoxicity | 3.1 log10 | 1.9 | 13.6 µM
